What is called solubility is the concentration that dissolves in the medium under given conditions. The term Solubility denotes how much of the substance goes into solution per volume.

This note sets out measurements from patent US11186552B2, “Tebuconazole polymorph and preparation method therefor” (East China University of Science and Technology, priority 2017, dated 2021).

In brackets after ≈: the same amount, converted by molar mass.

For one data set, the system named is wheat white powder. In words: Live spray protection of plants, prevention and control effect. The format is in vivo. From the text:
The water-dispersible granules preparations with 50% of crystal form 1 and crystal form 2 were formulated into solutions, respectively, and the plants were protected by live spray. Crystal form 2 has better prevention and control effect.

A short description of data set [1]: Solubility in ethanol by high performance liquid chromatography. The protocol: Excess crystal form 1 and crystal form 2 were weighed and suspended in ethanol, shaken for 12 h, and high performance liquid chromatography was used to test the solubility.
Data set [2] in a line: High temperature stability of crystal form (XRPD test). As to conditions: oven at 60±2° C., 5 and 10 days. The format is physicochemical. The protocol: XRD (X-ray powder diffraction) method: instrument model: Rigaku Ultima IV; target: Cu-Kα (40 kV, 40 mA); using a D/tex Ultra detector at room temperature. The scanning range is from 3° to 45 in the 2θ interval, and the scanning speed is 20°/minute. […] After 5 and 10 days, the sample was taken out for XRPD test to investigate the crystalline stability of the sample to temperature.

Data set [3] can be described thus: High humidity stability of crystal form (XRPD test). The format is physicochemical. As to conditions: 90±5% humidity, 5 days and 10 days. The method, then: (§1) XRD (X-ray powder diffraction) method: instrument model: Rigaku Ultima IV; target: Cu-Kα (40 kV, 40 mA); using a D/tex Ultra detector at room temperature. The scanning range is from 3° to 45 in the 2θ interval, and the scanning speed is 20°/minute.

Data set [4] in a line: Light stability of crystal form (XRPD test). The format is physicochemical. The conditions noted are these: 4500±500 lux light intensity, 5 days and 10 days. The method, then: as §1

With `CC(C)(C)C(O)(CCc1ccc(Cl)cc1)Cn1cncn1` (racemic) [96% tebuconazole TC, (RS)-1-(4-chlorophenyl)-4,4-dimethyl-3-(1H-1,2,4-triazol-1-ylmethyl) pentan-3-ol], the “prevention and control effect” value amounted to 0% in the data set with wheat white powder (concentration 0.15625 mg/L), 30% in the data set on wheat white powder (concentration 0.625 mg/L), 50% with wheat white powder (concentration 2.5 mg/L) and 100% with wheat white powder (concentration 10 mg/L).
In the case of `CC(C)(C)C(O)(CCc1ccc(Cl)cc1)Cn1cncn1` (racemic) [crystal form 1, (RS)-1-(4-chlorophenyl)-4,4-dimethyl-3-(1H-1,2,4-triazol-1-ylmethyl) pentan-3-ol], the solubility at 12 h in data set [1] (organic solvent or mixture, thermodynamic from solid, Solubility, excess solid suspended in ethanol, shaken for 12 h, HPLC) was determined as 92.1 mg/mL (≈ 299 mM).
For the compound `CC(C)(C)C(O)(CCc1ccc(Cl)cc1)Cn1cncn1` (racemic) [crystal form 2, (RS)-1-(4-chlorophenyl)-4,4-dimethyl-3-(1H-1,2,4-triazol-1-ylmethyl) pentan-3-ol], the “crystalline stability of the sample to temperature” value in data set [2] is recorded as “stable”. The “crystalline stability of the samples to humidity” value in data set [3] is listed as “stable”. In data set [4], the “crystal form stability of the sample to light” value is on record as “stable”. For the same compound, the “solubility in ethanol relative to crystal form 1” value in data set [1] (ethanol, crystal form 2 versus crystal form 1) is recorded as “about 1.7 times”. Besides, the Solubility in data set [1] (excess solid suspended in ethanol, shaken for 12 h, HPLC) came out at 156.2 mg/mL (≈ 507 mM).
